Reference: patent US20020062491A1, “Method of producing primary hepatocellular carcinoma-bearing model animals” (WELFIDE CORPORATION, priority 2000, published 2002)

Key:
Assay type in all cases: in vivo, male Fischer 344 rats
liver = test: Autopsy and histopathological examination of liver (H.E.-stained specimens); conditions: eight weeks; for Histopathological findings of H.E.-stained liver, in words: comparator group as stated in the value (groups 2 and 3: findings not observed in group 1 CRF-1)
Protocol: (§1) To the animals in group 1, only a CRF-1 basal diet (Oriental Yest Co., Ltd., Tokyo) was fed. To the ones in group 2, only a CDAA (Dyets Inc., USA) diet was fed. The CDAA diet, whose composition is shown in Table 1, was fed from the day before the 1st administration day of DEN (day 1) and was stored under refrigeration until use. To the ones in group 3, a CRF-1 basal diet was fed and DEN was treated. The dose of DEN was set at 95 mg/kg body weight (2 ml/kg body weight) and rats were intraperitoneally treated once a week for the first three weeks (day 1, 8 and 15). To the ones in group 4, a CDAA diet was fed and DEN was treated. To the ones in group 5, a CRF-1 basal diet was fed and given DEN and PH. In the partial hepatectomy (PH), the left lobe and the right and left sublobes of the median lobe of the liver were excised. PH was carried out on the day before the first administration of PB (day 28). To the ones in group 6, a CRF-1 basal diet was fed and given DEN, PH, and PB. The dose of PB was set at 60 mg/kg body weight (2 ml/kg body weight) and rats were intraperitoneally treated three times a week from week 5 (day 29, 32, 34, 36, 39, 41, 43, 46, 48, 50, 53, and 55). To the ones in group 7, a CDAA diet was fed and given DEN and PH. To the ones in group 8, a CDAA diet was fed and given DEN and PB. To the ones in group 9, a CDAA diet was fed and given DEN, PH, and PB. This experiment was started on Apr. 10, 1997.
At eight weeks (day 60-63), autopsy was performed after the animals were sacrificed by exsanguination under ether anesthesia. After the liver had been excised and fixed in 10% neutral buffered formalin fixative, paraffin sections and H.E.-stained specimens were prepared and microscopic examination was carried out.

GST-P-positive foci = test: Analysis of GST-P-stained liver specimens (GST-P-positive foci); conditions: for Focal area (GST-P positive) / Number of foci (GST-P positive) / Number of foci, focal size 0-0.03 mm^2 / Number of foci, focal size 0.03-0.1 mm^2 / Number of foci, focal size 0.1-0.3 mm^2 / Number of foci, focal size 0.3-1.0 mm^2 / Number of foci, focal size 1.0-3.0 mm^2 / Number of foci, focal size 3.0-10.0 mm^2 / Number of foci, focal size 10.0-30.0 mm^2 / Number of foci, focal size 30.0-100.0 mm^2 / Number of foci, focal size 100.0- mm^2: eight weeks; for GST-P-positive foci, comparison between groups in words: group 4 vs group 2, groups 5, 6 vs group 3, groups 7, 8, 9 vs group 4
Protocol: as §1
Immunohistochemical staining using polyclonal antibodies against GST-P was applied to facilitate quantitative evaluation of altered hepatocellular foci. Paraffin sections were stained immunohistochemically using the labeled streptavidin-biotin-peroxidase complex (LSAB) method for binding of rabbit anti-rat GST-Yp polyclonal antibody (1:1000; BIO PREP, IRELAND). The analytical procedure for the GST-P-stained specimens was as follows. Photographs (x10) of GST-P-stained specimens of whole cross-section of liver were taken. Photographs were jointed to construct complete cross-sectional image. GST-P-positive foci (hereinafter foci) were painted out with felt pen. Cross-sectional images were processed by Image Scanner (GT-6500, SEIKO EPSONCO., Ltd., Nagano) (using EpScan Mac). The area of each focus and total cross-sectional area of each image were measured using Adobe Photoshop and NIH image. Number of foci per unit area and focal area per unit area were calculated from data on number of foci, mean focal area, total focal area, and total organ area.
All examination data were statistically evaluated by F-t test. First, equal dispersion was tested by F test (significance level 5%). Student-t test was carried out where population variance was judged to be equal, and Welch-t test where it was judged different. Bilateral significance level was set at 5% and 1%.

[1] = Survival, final body weight and liver weight, 8-week study (Experimental Example 1); conditions: mean ± spread; DEN 95 mg/kg i.p. day 1, 8, 15; PB 60 mg/kg i.p. three times a week from week 5; PH day 28
Protocol: The eighty six male 4-week-old Fischer 344 rats used in this study were obtained from Charles River Japan, Inc. (Kanagawa). Grouping of the rats was performed according to the latest body weight. The animals were housed, two/cage in a climate-controlled animal room at temperature of 24±3° C., relative humidity of 55±15%, and ventilation rate of 10-20 times/h with 12-hour illumination, and allowed free access to the prescribed diets in every group and tap water.
To the animals in group 1, only a CRF-1 basal diet (Oriental Yest Co., Ltd., Tokyo) was fed. To the ones in group 2, only a CDAA (Dyets Inc., USA) diet was fed. The CDAA diet, whose composition is shown in Table 1, was fed from the day before the 1st administration day of DEN (day 1) and was stored under refrigeration until use. To the ones in group 3, a CRF-1 basal diet was fed and DEN was treated. The dose of DEN was set at 95 mg/kg body weight (2 ml/kg body weight) and rats were intraperitoneally treated once a week for the first three weeks (day 1, 8 and 15). To the ones in group 4, a CDAA diet was fed and DEN was treated. To the ones in group 5, a CRF-1 basal diet was fed and given DEN and PH. In the partial hepatectomy (PH), the left lobe and the right and left sublobes of the median lobe of the liver were excised. […]
All examination data were statistically evaluated by F-t test. […]

SMILES | Altered hepatocellular foci, number of animals by grade (±, +, 2+, 3+) (liver; H.E.-stained liver) | Vacuolar degeneration, number of animals by grade (±, +, 2+, 3+) (liver; H.E.-stained liver) | Histopathological findings of H.E.-stained liver, in words (liver) | Focal area (GST-P positive) (GST-P-positive foci) [CT mm^2/mm^2Liver] | Number of foci (GST-P positive) (GST-P-positive foci) | Number of foci, focal size 0-0.03 mm^2 (GST-P-positive foci) | Number of foci, focal size 0.03-0.1 mm^2 (GST-P-positive foci) [CT /mm^2Liver] | Number of foci, focal size 0.1-0.3 mm^2 (GST-P-positive foci) | Number of foci, focal size 0.3-1.0 mm^2 (GST-P-positive foci) [CT /mm^2Liver] | Number of foci, focal size 1.0-3.0 mm^2 (GST-P-positive foci) | Number of foci, focal size 3.0-10.0 mm^2 (GST-P-positive foci) | Number of foci, focal size 10.0-30.0 mm^2 (GST-P-positive foci) | Number of foci, focal size 30.0-100.0 mm^2 (GST-P-positive foci) | Number of foci, focal size 100.0- mm^2 (GST-P-positive foci) | GST-P-positive foci, comparison between groups in words (GST-P-positive foci) | Body weight (day 57) [1]
CCN(CC)N=O [CRF-1+DEN+PH, Diethylnitrosoamine] | 4 | 4 | altered hepatocellular foci were more marked than in group 3 (CRF-1+DEN) | 0.015 ± 0.006 | 0.467 ± 0.162 . CT /mm^2Liver | 0.335 ± 0.124 . CT /mm^2Liver | 0.105 ± 0.030 | 0.023 ± 0.014 . CT /mm^2Liver | 0.003 ± 0.002 | 0.000 ± 0.000 . CT /mm^2Liver | 0.000 ± 0.000 . CT /mm^2Liver | 0.000 ± 0.000 . CT /mm^2Liver | 0.000 ± 0.000 . CT /mm^2Liver | 0.000 ± 0.000 . CT /mm^2Liver | focal areas were elevated | 263.85 ± 3.96 ** * g
CCN(CC)N=O [CRF-1+DEN, Diethylnitrosoamine] | – | – | slight vacuolar degeneration and altered hepatocellular foci | 0.006 ± 0.002 | 0.350 ± 0.083 CT /mm^2Liver | 0.312 ± 0.070 CT /mm^2Liver | 0.035 ± 0.021 | 0.003 ± 0.005 CT /mm^2Liver | 0.000 ± 0.000 | 0.000 ± 0.000 CT /mm^2Liver | 0.000 ± 0.000 CT /mm^2Liver | 0.000 ± 0.000 CT /mm^2Liver | 0.000 ± 0.000 CT /mm^2Liver | 0.000 ± 0.000 CT /mm^2Liver | foci were observed | 257.52 ± 5.11 CT g
